Test results from ChEMBL document CHEMBL1201862, “PubChem BioAssay data set” (2004).
Blank lines part the entries; values can stand above or below the compound they belong to. Calls of active or inactive are those of the source.

Key:
[1] = target: Glucose-6-phosphate 1-dehydrogenase (Homo sapiens, UniProt P11413); experiment: inhibition of Homo sapiens G6PD, dose series – biochemical, fluorescence, selectivity assay for P. falciparum G6PD inhibitor project, dose response (AID 504792); type: functional
Chain of Glucose-6-phosphate 1-dehydrogenase (P11413 whole entry): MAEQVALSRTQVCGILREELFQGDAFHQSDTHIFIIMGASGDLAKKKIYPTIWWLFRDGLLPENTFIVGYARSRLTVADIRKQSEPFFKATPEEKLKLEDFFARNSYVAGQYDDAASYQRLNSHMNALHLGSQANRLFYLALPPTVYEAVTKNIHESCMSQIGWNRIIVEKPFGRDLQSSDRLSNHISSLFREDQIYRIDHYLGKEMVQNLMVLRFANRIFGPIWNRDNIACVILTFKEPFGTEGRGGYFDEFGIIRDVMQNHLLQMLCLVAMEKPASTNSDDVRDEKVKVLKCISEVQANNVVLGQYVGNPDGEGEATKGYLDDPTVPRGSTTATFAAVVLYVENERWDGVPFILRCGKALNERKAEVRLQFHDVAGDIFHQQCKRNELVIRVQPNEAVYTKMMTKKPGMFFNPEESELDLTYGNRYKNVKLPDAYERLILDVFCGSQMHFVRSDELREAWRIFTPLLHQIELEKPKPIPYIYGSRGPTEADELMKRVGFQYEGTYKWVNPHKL

Fatty acid synthase [2] = target: T1, Fatty acid synthase (Homo sapiens, UniProt P49327); experiment: inhibition of human FAS-TE enzyme activity – biochemical, endpoint fluorescence intensity, uHTS hits, dose response (AID 624327); type: functional;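 further: fluorescence from hydrolysis of an O-methyl fluorescein acyl ester substrate by the enzyme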
Prothrombin = Prothrombin (Homo sapiens, UniProt P00734); experiment: Thrombin 1536 HTS Dose Response Confirmation. [Related pubchem assays: 1046 (Thrombin 1536 HTS; hits were confirmed in this assay)]; type: functional
Fatty acid synthase [3] = target: T1, Fatty acid synthase; experiment: inhibition of human FAS-TE enzyme activity – biochemical, kinetic fluorescence intensity, dose response (AID 624326); type: functional;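 further: rate of fluorescence rise from hydrolysis of a fluorogenic O-methyl fluorescein ester substrate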
[4] = target: T2, Calpain-2 catalytic subunit (Sus scrofa, UniProt P43367); experiment: m-calpain protease blockers, concentration series – biochemical, fluorogenic peptide substrate, dose response (AID 1420); type: functional
T2 sequence (P43367 whole entry): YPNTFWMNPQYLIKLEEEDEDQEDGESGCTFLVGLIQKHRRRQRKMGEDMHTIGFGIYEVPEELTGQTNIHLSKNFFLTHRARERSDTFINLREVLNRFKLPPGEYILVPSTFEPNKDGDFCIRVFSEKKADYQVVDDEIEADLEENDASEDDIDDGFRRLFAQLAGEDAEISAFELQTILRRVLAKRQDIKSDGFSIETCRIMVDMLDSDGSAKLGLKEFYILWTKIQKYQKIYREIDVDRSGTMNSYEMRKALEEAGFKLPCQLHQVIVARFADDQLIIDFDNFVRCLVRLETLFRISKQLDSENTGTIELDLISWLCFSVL

[5] = target: Voltage-dependent T-type calcium channel subunit alpha-1H (Homo sapiens, UniProt O95180); type: functional;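 further: channel activity triggered by adding a high calcium stimulation buffer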
Chain of Voltage-dependent T-type calcium channel subunit alpha-1H (O95180 whole entry): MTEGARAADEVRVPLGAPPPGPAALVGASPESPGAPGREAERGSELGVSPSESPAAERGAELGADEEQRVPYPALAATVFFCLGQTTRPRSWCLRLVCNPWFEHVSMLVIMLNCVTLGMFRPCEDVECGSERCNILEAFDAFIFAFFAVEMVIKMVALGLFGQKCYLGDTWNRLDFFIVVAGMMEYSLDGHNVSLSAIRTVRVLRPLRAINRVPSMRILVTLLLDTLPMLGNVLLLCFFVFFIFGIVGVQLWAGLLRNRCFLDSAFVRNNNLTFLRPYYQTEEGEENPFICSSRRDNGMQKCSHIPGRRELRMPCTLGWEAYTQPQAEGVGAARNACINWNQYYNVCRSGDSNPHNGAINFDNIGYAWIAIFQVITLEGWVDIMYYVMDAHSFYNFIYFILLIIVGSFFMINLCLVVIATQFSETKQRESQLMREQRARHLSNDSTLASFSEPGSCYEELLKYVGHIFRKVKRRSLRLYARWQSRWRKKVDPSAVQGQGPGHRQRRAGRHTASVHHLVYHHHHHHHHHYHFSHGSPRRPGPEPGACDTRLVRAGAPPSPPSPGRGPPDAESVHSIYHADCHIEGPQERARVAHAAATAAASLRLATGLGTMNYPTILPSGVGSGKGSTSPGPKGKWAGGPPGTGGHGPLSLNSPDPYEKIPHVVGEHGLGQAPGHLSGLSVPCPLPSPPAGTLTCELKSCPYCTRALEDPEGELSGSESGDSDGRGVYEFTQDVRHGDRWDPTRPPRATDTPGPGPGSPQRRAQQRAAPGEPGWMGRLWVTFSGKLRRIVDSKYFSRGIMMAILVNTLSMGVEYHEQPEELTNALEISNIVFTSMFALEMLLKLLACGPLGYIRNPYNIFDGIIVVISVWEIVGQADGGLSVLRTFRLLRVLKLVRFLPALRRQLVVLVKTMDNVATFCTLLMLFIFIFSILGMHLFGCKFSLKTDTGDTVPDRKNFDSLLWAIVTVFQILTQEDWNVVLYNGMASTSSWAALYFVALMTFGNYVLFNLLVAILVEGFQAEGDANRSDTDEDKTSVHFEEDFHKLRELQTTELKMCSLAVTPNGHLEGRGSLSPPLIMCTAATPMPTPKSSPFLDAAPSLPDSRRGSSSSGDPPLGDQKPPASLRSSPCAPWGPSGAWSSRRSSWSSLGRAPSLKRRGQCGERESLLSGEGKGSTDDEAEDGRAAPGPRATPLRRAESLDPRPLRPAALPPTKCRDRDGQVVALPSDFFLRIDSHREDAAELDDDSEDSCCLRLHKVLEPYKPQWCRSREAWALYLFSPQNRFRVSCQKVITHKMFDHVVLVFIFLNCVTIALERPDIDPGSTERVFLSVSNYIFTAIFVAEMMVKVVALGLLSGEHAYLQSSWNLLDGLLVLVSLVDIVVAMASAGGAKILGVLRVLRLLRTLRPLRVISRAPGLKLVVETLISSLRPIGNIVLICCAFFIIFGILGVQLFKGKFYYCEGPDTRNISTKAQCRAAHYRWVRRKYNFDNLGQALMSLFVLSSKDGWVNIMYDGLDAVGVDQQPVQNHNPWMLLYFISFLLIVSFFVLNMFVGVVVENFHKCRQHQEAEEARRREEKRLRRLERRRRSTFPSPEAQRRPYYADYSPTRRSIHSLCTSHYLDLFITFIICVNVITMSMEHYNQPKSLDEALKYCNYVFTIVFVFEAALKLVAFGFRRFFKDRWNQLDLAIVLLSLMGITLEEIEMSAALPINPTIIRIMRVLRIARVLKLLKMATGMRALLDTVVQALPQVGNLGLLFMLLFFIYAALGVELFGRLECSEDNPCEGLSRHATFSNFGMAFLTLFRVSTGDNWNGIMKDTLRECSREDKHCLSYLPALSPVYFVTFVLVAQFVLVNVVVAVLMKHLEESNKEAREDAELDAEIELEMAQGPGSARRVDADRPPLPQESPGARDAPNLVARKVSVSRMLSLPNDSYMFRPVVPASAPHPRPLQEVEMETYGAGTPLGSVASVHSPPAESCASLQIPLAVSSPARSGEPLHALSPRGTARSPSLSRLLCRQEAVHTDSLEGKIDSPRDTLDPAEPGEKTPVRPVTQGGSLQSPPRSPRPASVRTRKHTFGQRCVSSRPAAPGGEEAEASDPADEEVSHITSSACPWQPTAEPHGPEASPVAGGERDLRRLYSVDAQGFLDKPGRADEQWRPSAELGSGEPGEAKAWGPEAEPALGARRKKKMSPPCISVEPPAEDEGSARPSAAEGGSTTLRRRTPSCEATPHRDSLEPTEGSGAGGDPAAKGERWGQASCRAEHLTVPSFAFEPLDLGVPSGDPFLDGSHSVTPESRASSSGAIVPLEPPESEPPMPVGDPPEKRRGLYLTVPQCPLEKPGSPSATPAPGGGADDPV

[6] = target: T3, Rac GTPase-activating protein 1 (Homo sapiens, UniProt Q9H0H5); experiment: blockers of MgcRacGAP-driven Rac1 GTP hydrolysis – biochemical, ADP Hunter fluorescence, primary and confirmatory, confirmation (AID 624330); type: functional
T3 sequence (Q9H0H5 whole entry): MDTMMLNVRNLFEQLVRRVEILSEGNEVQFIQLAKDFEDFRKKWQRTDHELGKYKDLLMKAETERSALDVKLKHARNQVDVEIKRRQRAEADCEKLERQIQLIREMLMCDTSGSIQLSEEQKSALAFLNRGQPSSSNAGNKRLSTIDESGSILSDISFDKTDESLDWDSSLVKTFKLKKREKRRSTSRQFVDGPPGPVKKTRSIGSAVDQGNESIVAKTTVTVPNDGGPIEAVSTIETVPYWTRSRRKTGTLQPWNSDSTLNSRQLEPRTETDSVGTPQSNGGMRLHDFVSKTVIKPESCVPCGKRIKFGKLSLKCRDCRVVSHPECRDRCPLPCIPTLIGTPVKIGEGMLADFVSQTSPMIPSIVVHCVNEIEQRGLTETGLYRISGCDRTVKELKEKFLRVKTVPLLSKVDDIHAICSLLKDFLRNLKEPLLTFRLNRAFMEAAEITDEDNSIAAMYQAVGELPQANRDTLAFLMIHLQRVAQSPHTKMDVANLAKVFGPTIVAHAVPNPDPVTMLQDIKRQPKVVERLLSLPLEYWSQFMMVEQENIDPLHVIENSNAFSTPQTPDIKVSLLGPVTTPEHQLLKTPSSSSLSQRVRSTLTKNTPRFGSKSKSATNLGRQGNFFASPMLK

Cytochrome P450 2C19 = Cytochrome P450 2C19 (Homo sapiens, UniProt P33261); experiment: Cytochrome panel assay with activity outcomes. Panel member name: p450-cyp2c19 Compounds with AC50 equal or less than 10 uM are considered active; type: functional; conditions: read-out: AC50
[7] = target: Induced myeloid leukemia cell differentiation protein Mcl-1 (Homo sapiens, UniProt Q07820); type: functional
Chain of Induced myeloid leukemia cell differentiation protein Mcl-1 (Q07820 whole entry): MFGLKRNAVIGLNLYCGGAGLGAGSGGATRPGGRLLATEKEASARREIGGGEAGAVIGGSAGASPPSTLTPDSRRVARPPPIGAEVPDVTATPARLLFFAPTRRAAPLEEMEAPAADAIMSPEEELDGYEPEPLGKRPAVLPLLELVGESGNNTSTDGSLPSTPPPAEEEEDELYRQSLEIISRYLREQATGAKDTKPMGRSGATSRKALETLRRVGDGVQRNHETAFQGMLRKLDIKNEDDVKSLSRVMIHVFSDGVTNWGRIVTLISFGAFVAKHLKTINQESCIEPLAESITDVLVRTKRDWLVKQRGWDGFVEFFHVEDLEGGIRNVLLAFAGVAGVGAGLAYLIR

Cytochrome P450 2C9 = Cytochrome P450 2C9 (Homo sapiens, UniProt P11712)
Chain of Cytochrome P450 2C9 (P11712 whole entry): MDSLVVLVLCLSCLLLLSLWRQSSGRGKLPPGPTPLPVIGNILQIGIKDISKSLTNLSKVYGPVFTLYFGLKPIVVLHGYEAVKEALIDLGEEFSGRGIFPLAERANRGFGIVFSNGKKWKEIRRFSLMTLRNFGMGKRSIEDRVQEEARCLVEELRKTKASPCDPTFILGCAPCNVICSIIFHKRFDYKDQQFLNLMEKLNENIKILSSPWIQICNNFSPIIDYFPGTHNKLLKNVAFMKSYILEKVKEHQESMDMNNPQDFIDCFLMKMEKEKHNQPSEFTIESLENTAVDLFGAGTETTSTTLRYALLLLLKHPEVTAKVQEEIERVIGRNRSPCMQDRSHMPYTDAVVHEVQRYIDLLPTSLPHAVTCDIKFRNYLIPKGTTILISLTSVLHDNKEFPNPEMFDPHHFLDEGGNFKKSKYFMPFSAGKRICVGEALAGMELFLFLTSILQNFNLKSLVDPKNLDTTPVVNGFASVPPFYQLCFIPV

Cytochrome P450 2D6 = Cytochrome P450 2D6 (Homo sapiens, UniProt P10635);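 further: CYP2D6 member of a cytochrome P450 panel assay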
Chain of Cytochrome P450 2D6 (P10635 whole entry): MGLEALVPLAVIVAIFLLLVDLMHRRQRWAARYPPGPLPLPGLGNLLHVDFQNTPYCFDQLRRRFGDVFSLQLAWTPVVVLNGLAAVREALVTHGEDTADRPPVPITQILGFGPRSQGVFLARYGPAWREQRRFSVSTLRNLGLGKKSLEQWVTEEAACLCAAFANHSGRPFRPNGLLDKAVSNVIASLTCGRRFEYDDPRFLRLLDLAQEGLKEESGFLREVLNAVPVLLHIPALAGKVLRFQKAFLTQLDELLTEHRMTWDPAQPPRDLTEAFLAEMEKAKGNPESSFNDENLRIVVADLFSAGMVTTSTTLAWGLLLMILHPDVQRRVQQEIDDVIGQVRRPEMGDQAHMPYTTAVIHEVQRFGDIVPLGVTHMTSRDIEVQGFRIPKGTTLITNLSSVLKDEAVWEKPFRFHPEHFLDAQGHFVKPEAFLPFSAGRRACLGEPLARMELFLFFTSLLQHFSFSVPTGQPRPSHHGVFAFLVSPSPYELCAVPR

Cytochrome P450 3A4 = Cytochrome P450 3A4 (Homo sapiens, UniProt P08684);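 further: CYP3A4 tested as one member of a cytochrome P450 panel screen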
Chain of Cytochrome P450 3A4 (P08684 whole entry): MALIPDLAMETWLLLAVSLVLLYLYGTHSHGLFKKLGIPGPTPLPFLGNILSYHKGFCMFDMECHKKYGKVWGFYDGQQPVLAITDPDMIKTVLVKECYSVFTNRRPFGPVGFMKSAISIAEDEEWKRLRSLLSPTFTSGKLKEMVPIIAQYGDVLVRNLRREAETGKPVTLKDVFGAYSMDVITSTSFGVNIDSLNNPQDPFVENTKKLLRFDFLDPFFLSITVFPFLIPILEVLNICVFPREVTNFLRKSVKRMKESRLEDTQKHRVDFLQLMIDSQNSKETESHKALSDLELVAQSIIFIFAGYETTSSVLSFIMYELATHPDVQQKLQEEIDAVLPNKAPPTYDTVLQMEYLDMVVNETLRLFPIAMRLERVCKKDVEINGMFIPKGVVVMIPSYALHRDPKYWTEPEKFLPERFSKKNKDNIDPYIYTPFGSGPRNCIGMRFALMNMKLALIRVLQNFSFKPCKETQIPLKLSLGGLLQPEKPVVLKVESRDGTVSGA

Cytochrome P450 1A2 = target: T4, Cytochrome P450 1A2 (Homo sapiens, UniProt P05177);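 further: PubChem cytochrome P450 panel assay, CYP1A2 panel member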
T4 sequence (P05177 whole entry): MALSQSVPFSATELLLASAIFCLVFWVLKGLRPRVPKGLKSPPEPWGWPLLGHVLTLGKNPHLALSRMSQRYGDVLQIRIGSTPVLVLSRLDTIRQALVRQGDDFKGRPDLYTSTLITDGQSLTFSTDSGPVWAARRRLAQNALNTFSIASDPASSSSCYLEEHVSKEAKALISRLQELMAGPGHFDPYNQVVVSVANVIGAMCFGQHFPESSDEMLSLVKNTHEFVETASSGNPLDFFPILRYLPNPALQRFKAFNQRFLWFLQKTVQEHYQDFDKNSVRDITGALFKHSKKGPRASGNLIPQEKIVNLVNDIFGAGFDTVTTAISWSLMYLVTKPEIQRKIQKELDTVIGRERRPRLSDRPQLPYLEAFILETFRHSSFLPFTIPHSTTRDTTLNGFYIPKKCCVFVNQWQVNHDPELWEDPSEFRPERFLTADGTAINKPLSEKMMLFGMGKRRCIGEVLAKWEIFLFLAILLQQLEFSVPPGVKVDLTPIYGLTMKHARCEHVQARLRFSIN

[8] = target: T5, Short transient receptor potential channel 4 (Mus musculus, UniProt Q9QUQ5); experiment: block of DAMGO-driven TRPC4 calcium entry – cell-based, HEK293 TRPC4/mu-opioid, Fluo-4 calcium, dose response (AID 434942); type: functional;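 further: potency of inhibitors blocking the TRPC4 calcium response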
T5 sequence (Q9QUQ5 whole entry): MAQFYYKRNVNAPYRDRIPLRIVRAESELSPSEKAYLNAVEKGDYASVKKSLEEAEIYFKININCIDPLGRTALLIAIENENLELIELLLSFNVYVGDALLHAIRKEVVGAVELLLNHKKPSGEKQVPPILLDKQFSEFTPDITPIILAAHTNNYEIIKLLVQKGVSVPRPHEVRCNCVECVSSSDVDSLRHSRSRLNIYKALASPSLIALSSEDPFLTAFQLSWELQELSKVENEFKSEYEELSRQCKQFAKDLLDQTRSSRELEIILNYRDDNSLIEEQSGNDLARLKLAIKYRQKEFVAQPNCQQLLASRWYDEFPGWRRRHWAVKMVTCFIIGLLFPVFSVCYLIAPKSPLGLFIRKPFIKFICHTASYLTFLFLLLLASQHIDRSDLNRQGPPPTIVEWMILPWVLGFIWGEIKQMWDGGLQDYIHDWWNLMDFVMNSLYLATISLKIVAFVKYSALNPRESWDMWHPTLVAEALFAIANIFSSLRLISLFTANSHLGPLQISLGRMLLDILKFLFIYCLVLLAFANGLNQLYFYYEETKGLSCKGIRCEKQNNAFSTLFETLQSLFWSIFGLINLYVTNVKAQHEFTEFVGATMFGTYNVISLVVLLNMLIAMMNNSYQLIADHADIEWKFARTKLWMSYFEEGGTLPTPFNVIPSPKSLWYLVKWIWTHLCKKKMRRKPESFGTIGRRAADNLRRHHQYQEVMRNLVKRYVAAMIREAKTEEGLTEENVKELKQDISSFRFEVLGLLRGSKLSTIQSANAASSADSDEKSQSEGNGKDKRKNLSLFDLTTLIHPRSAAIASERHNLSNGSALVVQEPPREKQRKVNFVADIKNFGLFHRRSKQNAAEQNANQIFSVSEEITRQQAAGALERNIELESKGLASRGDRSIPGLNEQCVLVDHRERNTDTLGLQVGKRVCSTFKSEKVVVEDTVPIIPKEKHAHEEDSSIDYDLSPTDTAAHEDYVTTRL

[9] = target: T6, Heat shock factor protein 1 (Mus musculus, UniProt P38532); experiment: decrease of HSF1-responsive luciferase luminescence – cell-based, NIH3T3, dose retest, confirmation (AID 2382); type: functional;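 further: NIH3T3 fibroblasts with HSF1-driven luciferase reporter stressed by proteasome inhibitor MG132; luminescence from HSF1-driven luciferase expression after 8 hours of MG132 stress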
T6 sequence (P38532 whole entry): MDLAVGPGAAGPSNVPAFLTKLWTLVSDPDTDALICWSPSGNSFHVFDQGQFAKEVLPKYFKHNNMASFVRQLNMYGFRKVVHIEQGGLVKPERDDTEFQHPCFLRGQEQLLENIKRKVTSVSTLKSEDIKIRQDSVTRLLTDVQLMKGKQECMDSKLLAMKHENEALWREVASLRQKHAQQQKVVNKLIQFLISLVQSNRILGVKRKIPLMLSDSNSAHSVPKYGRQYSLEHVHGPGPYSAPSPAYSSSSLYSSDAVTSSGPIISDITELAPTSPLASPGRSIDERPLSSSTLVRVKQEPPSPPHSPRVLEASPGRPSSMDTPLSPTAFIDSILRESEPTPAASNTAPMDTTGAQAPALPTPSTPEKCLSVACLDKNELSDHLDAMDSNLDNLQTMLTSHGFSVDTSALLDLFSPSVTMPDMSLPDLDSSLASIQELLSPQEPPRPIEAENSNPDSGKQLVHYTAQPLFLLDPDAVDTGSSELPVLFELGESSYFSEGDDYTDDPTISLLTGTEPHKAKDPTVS

[10] = viability of PTEN-deleted HCT116 cells – cell-based, HCT116 PTEN knockout, dose response (AID 1047); type: functional;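 further: HCT116 colon tumor cells with PTEN knocked out; cells exposed to compound for 60 hours before readout; potency for loss of cell viability measured by luminescence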
[11] = viability of HCT116 lacking mutant beta-catenin – cell-based, human colon tumor, dose response (AID 1045); type: functional;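 further: HCT116 colon tumor cells with beta catenin knocked out; cells exposed to compound for 60 hours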
cells [12] = type: functional, cell-based
cells [13] = type: functional, cell-based; remark: listed apart in the source

- IC50 (Prothrombin): 3.09 µM (active)
- IC50 [6]: 108 µM (active)
SMILES: CCOC(=O)c1[nH]c2ccccc2c1NC(=S)Nc1ccccc1

- EC50 [5]: 5.35 µM (active)
SMILES: O=C(CN1C(=O)C2CC=CCC2C1=O)Nc1nnc(SCc2ccc(Cl)cc2)s1 (stereo not given)

- EC50 [5]: 1.95 µM (active)
SMILES: Cc1ccc(-c2noc(CSc3nnnn3C3CCCCC3)n2)cc1

- IC50 (Prothrombin): > 50 µM (not active)
SMILES: CCOC(=O)CSc1nnc(NC(=O)c2cc([N+](=O)[O-])cc([N+](=O)[O-])c2)s1

- IC50 [4]: 2.3 µM (active)
SMILES: COc1ccc(CNc2nc3c(c(=O)n(Cc4ccc(Br)cc4)c(=O)n3C)n2C)cc1

- EC50 [9]: > 195 µM (not active)
- IC50 (Prothrombin): 1.37 µM (active)
SMILES: O=C(Oc1oc(-c2ccco2)nc1/C=N/c1ccccc1)c1ccoc1

- IC50 [1]: 53.5 µM (inactive)
SMILES: Cc1ccc(S(=O)(=O)Oc2cccc(/C=N/Nc3ccc(C(=O)O)cc3)c2)cc1

The remaining lines, values behind:

SMILES: CCn1c(SCc2nc3scc(-c4ccccc4)c3c(=O)[nH]2)nnc1-c1cccs1
- IC50 [1]: > 80 µM (inactive)

SMILES: CCn1cc(C(=O)NCc2ccc3c(c2)OCO3)c(=O)c2cc(S(=O)(=O)N(C)C)ccc21
- IC50 (Fatty acid synthase [2]): 8.88 µM (active)
- IC50 (Prothrombin): 0.537 µM (active)
- IC50 (Fatty acid synthase [3]): 12.1 µM (active)

SMILES: Cc1ccc(N2CCN(C3=NC(=O)/C(=C\c4cccs4)S3)CC2)cc1
- IC50 [4]: 19.3 µM (not active)

SMILES: COc1ccc(-c2nnc(N3CCCCC3)c3ccccc23)cc1
- EC50 [5]: 11.3 µM (active)

SMILES: O=C(Nc1ccc(Cl)cc1)N1CCc2[nH]c3ccccc3c2C1
- AC50 (Cytochrome P450 2C19): 2 µM (inconclusive)
- IC50 [7]: 2.32 µM (not active)
- EC50 [5]: 0.802 µM (active)
- AC50 (Cytochrome P450 2C9): 3.98 µM (inconclusive)
- AC50 (Cytochrome P450 2D6): 22.4 µM (inconclusive)

SMILES: CCC(C(=O)Nc1cccc(C(F)(F)F)c1)c1ccccc1 (stereo not given)
- EC50 [5]: 2.89 µM (active)
- AC50 (Cytochrome P450 3A4): 14.1 µM (inconclusive)
- AC50 (Cytochrome P450 1A2): 2.51 µM (inconclusive)

SMILES: O=C1c2ccccc2C(=O)N1CCc1csc(-c2ccc(F)cc2)n1
- IC50 [4]: > 50 µM (not active)

SMILES: COCCn1c(SCc2ccccc2F)nc2ccccc2c1=O
- EC50 [8]: 1.88 µM (active)
- IC50 [4]: 9.21 µM (not active)

SMILES: CC(=O)n1nc(-c2ccccc2)nc1NCc1ccc(F)cc1
- IC50 (Prothrombin): 0.0165 µM (active)

SMILES: Cc1ccc(S(=O)(=O)N(C)C)cc1NC(=O)CSc1nc2cc(Cl)c[nH]c-2n1
- IC50 [1]: > 80 µM (inactive)

SMILES: C=CCOc1ccc(/C=N/N2C(=O)C(CC(=O)Nc3ccc(F)cc3F)S/C2=N\C)cc1 (stereo not given)
- EC50 [10]: 17.6 µM (active)
- EC50 [11]: 79.4 µM (active)
- IC50 [4]: > 50 µM (not active)

SMILES: COc1cccc(/C=N\NC(=O)Cn2nnc3ccccc32)c1O
- EC50 (cells [12]): > 350 µM (not active)
- EC50 (cells [13]): 172 µM (active)

SMILES: CCOc1cccc(-c2c(C(=O)N/N=C/c3ccc(Br)cc3)nnn2-c2nonc2N)c1
- EC50 (cells [12]): 160 µM (active)
- EC50 (cells [13]): > 350 µM (not active)
